{"source": "patent US20040224984A1", "about": "“Methods of treating inflammations and infections with pyridinium salts” (priority 2003, published 2004)", "key": {"Candida albicans": {"tested_on": "Candida albicans", "experiment": "Vaginal candidiasis in female Charles River mice", "format": "in vivo", "settings": "mice infected vaginally, 0.025 mL daily for 4 days from 6 hours post-infection, formula I 0.5% (w/v), chlortrimazole 1% (w/v)", "experimental": "Mice, infected vaginally with Candida albicans, were treated with 0.025 mL of the above treatments, commencing 6 hours post-infection, daily for 4 days."}, "Rodent [1]": {"tested_on": "Rodent", "experiment": "4 Hour Carrageenan Pleuritis (rodent inflammation model)", "format": "in vivo", "settings": "Prednisolone 0.02 mg/kg"}, "Rodent [2]": {"tested_on": "Rodent", "experiment": "4 Hour Allergic Pleuritis (rodent inflammation model)", "format": "in vivo", "settings": "Prednisolone 0.004 mg/kg"}, "Rodent [3]": {"tested_on": "Rodent", "experiment": "4 Hour Allergic Synovitis (rodent inflammation model)", "format": "in vivo", "settings": "Prednisolone 0.05 mg/kg"}, "[4]": {"tested_on": "roundworms, threadworms, and whipworms", "settings": "reported; U.S. Pat. No. 3,075,975 and 3,085,935; cited from earlier work"}}, "data": [{"smiles": "Clc1ccccc1C(c1ccccc1)(c1ccccc1)n1ccnc1", "note": "[Chlortrimazole]", "values": [{"measurement": "Cleared", "setting": "Candida albicans; mice cleared/treated", "result": "7/10"}, {"measurement": "Improved", "setting": "Candida albicans; mice improved/treated", "result": "2/10"}]}, {"smiles": "C[C@]12C=CC(=O)C=C1CC[C@@H]1[C@@H]2[C@@H](O)C[C@@]2(C)[C@H]1CC[C@]2(O)C(=O)CO", "note": "[Prednisolone]", "values": [{"measurement": "% Inhibition Edema", "setting": "Rodent [1]", "result": 31, "unit": "%"}, {"measurement": "% Inhibition Neutrophils", "setting": "Rodent [1]", "result": 21, "unit": "%"}, {"measurement": "% Inhibition Edema", "setting": "Rodent [2]", "result": 33, "unit": "%"}, {"measurement": "% Inhibition Neutrophils", "setting": "Rodent [2]", "result": 25, "unit": "%"}, {"measurement": "% Inhibition Edema", "setting": "Rodent [3]", "result": 36, "unit": "%"}, {"measurement": "% Inhibition Neutrophils", "setting": "Rodent [3]", "result": 37, "unit": "%"}]}, {"smiles": "CC[n+]1c(/C=C/c2ccc(N3CCCC3)cc2)cccc1/C=C/c1ccc(N2CCCC2)cc1.[I-]", "note": "[Stilbazium iodide]", "values": [{"measurement": "Anthelmintic efficacy", "setting": "[4]", "result": "effective against roundworms, threadworms, and whipworms"}]}]}
